Source: article PMC10140010 (Investigational New Drugs, 2023)
Values joined by “and” are separate entries in the source; they are usually repeats but may differ in a detail not shown here. Identical values can stand only once.

How the values were obtained:
ALK^WT = ALK^WT (Homo sapiens, UniProt Q9UM73); experiment: HTRF kinase activity assay; assay type: biochemical
Experimental: After the kinase proteins, Ulight-peptide species, adenosine triphosphate (ATP), and compound were mixed, the reaction was carried out at room temperature. Reactions were quenched by the addition of ethylene diamine tetraacetic acid buffer containing Eu antibody and XL665-streptavidin at the indicated time points. Plate reading was performed using an Envision (Perkin Elmer, MA, USA) multifunctional microplate reader.

CDK2 = CDK2 (Homo sapiens, UniProt P24941); experiment: Z'-LYTE kinase selectivity; assay type: biochemical
CK1 alpha = CK1 alpha (Homo sapiens, UniProt P48729); experiment: Z'-LYTE kinase selectivity; assay type: biochemical
Chain of CK1 alpha (P48729 whole entry): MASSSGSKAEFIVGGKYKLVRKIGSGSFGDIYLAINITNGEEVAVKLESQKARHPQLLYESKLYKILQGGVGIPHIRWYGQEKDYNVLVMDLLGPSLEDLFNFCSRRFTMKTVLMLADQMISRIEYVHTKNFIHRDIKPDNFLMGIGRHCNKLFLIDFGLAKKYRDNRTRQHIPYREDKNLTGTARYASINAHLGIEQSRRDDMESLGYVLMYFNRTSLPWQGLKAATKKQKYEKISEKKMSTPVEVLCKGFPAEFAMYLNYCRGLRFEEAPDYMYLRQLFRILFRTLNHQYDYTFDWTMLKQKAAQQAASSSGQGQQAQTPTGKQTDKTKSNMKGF

DYRK3 = DYRK3 (Homo sapiens, UniProt O43781); experiment: Z'-LYTE kinase selectivity; assay type: biochemical
EPHA2 = EPHA2 (Homo sapiens, UniProt P29317); experiment: Z'-LYTE kinase selectivity; assay type: biochemical
GSK3 beta = GSK3 beta (Homo sapiens, UniProt P49841); experiment: Z'-LYTE kinase selectivity; assay type: biochemical
Chain of GSK3 beta (P49841 whole entry): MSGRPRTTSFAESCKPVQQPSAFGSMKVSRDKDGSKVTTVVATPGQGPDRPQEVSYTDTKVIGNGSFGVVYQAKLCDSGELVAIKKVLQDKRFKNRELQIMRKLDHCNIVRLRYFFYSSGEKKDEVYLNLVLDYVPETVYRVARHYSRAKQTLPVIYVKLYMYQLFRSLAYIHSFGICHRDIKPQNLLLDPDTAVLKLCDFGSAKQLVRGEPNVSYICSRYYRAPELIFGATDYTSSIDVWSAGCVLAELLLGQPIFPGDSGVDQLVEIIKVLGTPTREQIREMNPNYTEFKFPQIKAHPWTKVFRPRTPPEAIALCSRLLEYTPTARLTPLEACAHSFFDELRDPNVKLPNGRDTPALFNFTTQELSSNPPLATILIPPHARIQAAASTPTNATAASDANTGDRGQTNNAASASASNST

JAK2 = JAK2 (Homo sapiens, UniProt O60674); experiment: Z'-LYTE kinase selectivity; assay type: biochemical
Chain of JAK2 (O60674 whole entry): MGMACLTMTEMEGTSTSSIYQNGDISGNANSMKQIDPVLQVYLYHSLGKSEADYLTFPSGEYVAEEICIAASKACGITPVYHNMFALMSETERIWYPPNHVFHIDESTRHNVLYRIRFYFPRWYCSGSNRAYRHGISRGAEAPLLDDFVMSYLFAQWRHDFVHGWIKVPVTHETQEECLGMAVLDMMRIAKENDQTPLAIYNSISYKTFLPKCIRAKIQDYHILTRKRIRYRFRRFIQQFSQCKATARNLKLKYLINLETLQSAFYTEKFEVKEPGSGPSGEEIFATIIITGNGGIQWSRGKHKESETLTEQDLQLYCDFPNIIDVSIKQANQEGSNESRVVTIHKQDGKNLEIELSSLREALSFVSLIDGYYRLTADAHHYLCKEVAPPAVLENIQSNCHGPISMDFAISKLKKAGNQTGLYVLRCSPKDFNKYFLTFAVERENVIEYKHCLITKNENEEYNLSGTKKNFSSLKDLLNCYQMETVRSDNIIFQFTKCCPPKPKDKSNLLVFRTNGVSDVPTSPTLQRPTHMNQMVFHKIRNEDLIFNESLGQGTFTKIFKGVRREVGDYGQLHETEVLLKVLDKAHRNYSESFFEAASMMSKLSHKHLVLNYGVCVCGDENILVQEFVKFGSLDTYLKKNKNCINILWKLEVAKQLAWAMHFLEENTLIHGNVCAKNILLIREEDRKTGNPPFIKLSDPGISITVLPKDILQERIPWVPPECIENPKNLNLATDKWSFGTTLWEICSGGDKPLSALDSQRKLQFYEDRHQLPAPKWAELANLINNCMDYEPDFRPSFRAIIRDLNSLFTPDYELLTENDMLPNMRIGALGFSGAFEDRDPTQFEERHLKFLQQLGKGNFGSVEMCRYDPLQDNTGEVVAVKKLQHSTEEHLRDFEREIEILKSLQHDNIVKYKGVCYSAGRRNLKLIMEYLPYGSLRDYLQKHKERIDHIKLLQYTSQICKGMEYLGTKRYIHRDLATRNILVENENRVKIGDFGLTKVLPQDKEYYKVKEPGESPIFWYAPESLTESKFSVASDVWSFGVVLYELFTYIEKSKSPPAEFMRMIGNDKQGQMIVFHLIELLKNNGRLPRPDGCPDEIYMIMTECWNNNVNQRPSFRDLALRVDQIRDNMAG

MAPKAPK2 = MAPKAPK2 (Homo sapiens, UniProt P49137); experiment: Z'-LYTE kinase selectivity; assay type: biochemical
MINK = MINK (Homo sapiens, UniProt Q8N4C8); experiment: Z'-LYTE kinase selectivity; assay type: biochemical
MST4 = MST4 (Homo sapiens, UniProt Q9P289); experiment: Z'-LYTE kinase selectivity; assay type: biochemical
P38 alpha = P38 alpha (Homo sapiens, UniProt Q16539); experiment: Z'-LYTE kinase selectivity; assay type: biochemical
Chain of P38 alpha (Q16539 whole entry): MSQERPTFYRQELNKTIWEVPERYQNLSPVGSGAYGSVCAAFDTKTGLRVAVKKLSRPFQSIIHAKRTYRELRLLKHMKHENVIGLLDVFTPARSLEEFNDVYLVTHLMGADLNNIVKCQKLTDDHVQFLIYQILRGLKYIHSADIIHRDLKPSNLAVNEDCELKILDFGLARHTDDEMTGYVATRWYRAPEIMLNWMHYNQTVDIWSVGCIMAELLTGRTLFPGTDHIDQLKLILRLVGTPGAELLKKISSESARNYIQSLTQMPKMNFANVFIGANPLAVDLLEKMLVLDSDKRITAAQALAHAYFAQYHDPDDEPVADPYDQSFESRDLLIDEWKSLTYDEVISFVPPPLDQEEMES

SRC = SRC (Homo sapiens, UniProt P12931); experiment: Z'-LYTE kinase selectivity; assay type: biochemical
TAOK2 = TAOK2 (Homo sapiens, UniProt Q9UL54); experiment: Z'-LYTE kinase selectivity; assay type: biochemical
Chain of TAOK2 (Q9UL54 whole entry): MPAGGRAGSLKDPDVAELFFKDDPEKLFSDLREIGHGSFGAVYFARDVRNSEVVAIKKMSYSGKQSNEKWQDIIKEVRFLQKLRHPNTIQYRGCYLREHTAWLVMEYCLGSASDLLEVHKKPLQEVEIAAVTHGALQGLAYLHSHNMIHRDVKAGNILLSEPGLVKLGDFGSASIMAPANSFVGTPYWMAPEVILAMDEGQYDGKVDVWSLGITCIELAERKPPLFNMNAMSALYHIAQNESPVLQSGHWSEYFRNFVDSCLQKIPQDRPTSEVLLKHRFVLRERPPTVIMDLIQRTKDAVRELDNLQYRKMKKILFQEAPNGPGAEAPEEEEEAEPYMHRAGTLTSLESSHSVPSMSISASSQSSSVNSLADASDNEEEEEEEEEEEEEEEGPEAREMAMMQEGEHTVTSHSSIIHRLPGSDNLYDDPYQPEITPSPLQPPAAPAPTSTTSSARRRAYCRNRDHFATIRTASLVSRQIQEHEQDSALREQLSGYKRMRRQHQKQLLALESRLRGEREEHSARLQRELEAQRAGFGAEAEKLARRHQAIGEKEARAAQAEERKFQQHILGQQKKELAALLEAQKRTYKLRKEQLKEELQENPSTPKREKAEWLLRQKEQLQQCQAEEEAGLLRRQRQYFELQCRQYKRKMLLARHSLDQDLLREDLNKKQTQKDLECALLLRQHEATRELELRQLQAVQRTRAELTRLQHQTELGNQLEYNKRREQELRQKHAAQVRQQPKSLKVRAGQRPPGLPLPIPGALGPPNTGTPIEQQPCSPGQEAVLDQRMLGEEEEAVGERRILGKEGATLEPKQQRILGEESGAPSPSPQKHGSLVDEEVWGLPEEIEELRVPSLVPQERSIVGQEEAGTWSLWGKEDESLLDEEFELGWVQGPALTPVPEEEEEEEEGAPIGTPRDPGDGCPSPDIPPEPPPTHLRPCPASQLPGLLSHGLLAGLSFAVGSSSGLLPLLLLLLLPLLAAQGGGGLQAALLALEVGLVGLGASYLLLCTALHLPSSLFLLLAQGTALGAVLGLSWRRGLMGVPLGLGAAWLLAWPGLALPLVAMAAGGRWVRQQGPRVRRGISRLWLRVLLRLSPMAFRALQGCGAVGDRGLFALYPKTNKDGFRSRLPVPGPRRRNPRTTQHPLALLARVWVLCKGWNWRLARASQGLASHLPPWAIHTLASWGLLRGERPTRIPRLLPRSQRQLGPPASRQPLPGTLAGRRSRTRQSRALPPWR

[1] = test system: Ba/F3 (SLC34A2-ROS1) cells; experiment: Cell proliferation (CellTiter-Glo); assay type: cell-based; conditions: Mus musculus, BaF3
Experimental: (§1) Cell proliferation assay was performed using methods reported in the previous article. Cell proliferation was measured using the CellTiter-Glo® (CTG) Luminescent Cell Viability Assay (Promega, WI, USA). Cells were seeded in 96-well plates at 15,000 cells per well in detection medium containing 0.5% fetal bovine serum and placed in an incubator at 37℃ and 5% CO2 overnight. On the following day, iruplinalkib was serially diluted with DMSO, further diluted in assay medium, and added to the designated wells for serial dilution of iruplinalkib to the target gradient concentration.

[2] = test system: NCI-H1975 (EGFR^L858R/T790M) cells; experiment: Cell proliferation (CellTiter-Glo); assay type: cell-based; conditions: Homo sapiens, NCI-H1975
Experimental: as §1

[3] = test system: LU-01-0015 (HIP-ALK) patient derived lung-tumor xenografts; experiment: LU-01-0015 patient-derived xenograft model (tumor volume, body weight); assay type: in vivo, BALB/c nude mice; conditions: for Tumor volume Mean: group mean; for Tumor volume: individual mouse, in mm³
Experimental: Female BALB/c nude mice (4–6 weeks old) were provided by Shanghai Sipple-Bikai Laboratory Animal Co., Ltd. and Beijing Vital River Laboratory Animal Technology Co., Ltd. The mice were housed in a specific pathogen-free environment under a 12 h light/dark cycle, and had free access to sterile animal feed and water.
PDX and CDX models were used for in vivo studies. Patient-derived tumors tissues were divided into about 30 mm^3 and transplanted into the right dorsal subcutis. Treatment began when the tumor size reached to 200 mm^3. The mice were randomly assignied into the corresponding dosing groups (9 mice in each group). Drugs were deliverd via daily oral for 4 weeks. Tumor size was measured periodically using a digital caliper (Cal Pro, Sylvac, Switzerland), and tumor volume was calculated as 0.5 × length × width^2. For more detailed information, please refer to Supplementary materials. All procedures and protocols of xenograft models were approved by the Institutional Animal Care and Use Committee of WuXi AppTec.
Patient-derived tumor tissue was segmented into small pieces of approximately 20–30 mm^3 and transplanted subcutaneously into the right back of mice. When the tumor volume reached 150-200 mm^3, the mice were randomly divided into corresponding groups (9 mice in each group, female). Administered by gavage once daily for 4 weeks.

[4] = 5 mg/kg PO QD×4 W, day 0 after administration
[5] = 5 mg/kg PO QD×4 W, day 3 after administration
[6] = 5 mg/kg PO QD×4 W, day 7 after administration
[7] = 5 mg/kg PO QD×4 W, day 10 after administration
[8] = 5 mg/kg PO QD×4 W, day 14 after administration
[9] = 5 mg/kg PO QD×4 W, day 17 after administration
[10] = 5 mg/kg PO QD×4 W, day 21 after administration
[11] = 5 mg/kg PO QD×4 W, day 24 after administration
[12] = 5 mg/kg PO QD×4 W, day 27 after administration
[13] = 10 mg/kg (D0-D7)/2.5 mg/kg PO QD×4 W, day 0 after administration
[14] = 10 mg/kg (D0-D7)/2.5 mg/kg PO QD×4 W, day 3 after administration
[15] = 10 mg/kg (D0-D7)/2.5 mg/kg PO QD×4 W, day 7 after administration
[16] = 10 mg/kg (D0-D7)/2.5 mg/kg PO QD×4 W, day 10 after administration
[17] = 10 mg/kg (D0-D7)/2.5 mg/kg PO QD×4 W, day 14 after administration
[18] = 10 mg/kg (D0-D7)/2.5 mg/kg PO QD×4 W, day 17 after administration
[19] = 10 mg/kg (D0-D7)/2.5 mg/kg PO QD×4 W, day 21 after administration
[20] = 10 mg/kg (D0-D7)/2.5 mg/kg PO QD×4 W, day 24 after administration
[21] = 10 mg/kg (D0-D7)/2.5 mg/kg PO QD×4 W, day 27 after administration
[22] = 15 mg/kg PO QD×4 W, day 0 after administration
[23] = 15 mg/kg PO QD×4 W, day 3 after administration
[24] = 15 mg/kg PO QD×4 W, day 7 after administration
[25] = 15 mg/kg PO QD×4 W, day 10 after administration
[26] = 15 mg/kg PO QD×4 W, day 14 after administration
[27] = 15 mg/kg PO QD×4 W, day 17 after administration
[28] = 15 mg/kg PO QD×4 W, day 21 after administration
[29] = 15 mg/kg PO QD×4 W, day 24 after administration
[30] = 15 mg/kg PO QD×4 W, day 27 after administration

Chain of ALK^WT (Q9UM73 19-1620): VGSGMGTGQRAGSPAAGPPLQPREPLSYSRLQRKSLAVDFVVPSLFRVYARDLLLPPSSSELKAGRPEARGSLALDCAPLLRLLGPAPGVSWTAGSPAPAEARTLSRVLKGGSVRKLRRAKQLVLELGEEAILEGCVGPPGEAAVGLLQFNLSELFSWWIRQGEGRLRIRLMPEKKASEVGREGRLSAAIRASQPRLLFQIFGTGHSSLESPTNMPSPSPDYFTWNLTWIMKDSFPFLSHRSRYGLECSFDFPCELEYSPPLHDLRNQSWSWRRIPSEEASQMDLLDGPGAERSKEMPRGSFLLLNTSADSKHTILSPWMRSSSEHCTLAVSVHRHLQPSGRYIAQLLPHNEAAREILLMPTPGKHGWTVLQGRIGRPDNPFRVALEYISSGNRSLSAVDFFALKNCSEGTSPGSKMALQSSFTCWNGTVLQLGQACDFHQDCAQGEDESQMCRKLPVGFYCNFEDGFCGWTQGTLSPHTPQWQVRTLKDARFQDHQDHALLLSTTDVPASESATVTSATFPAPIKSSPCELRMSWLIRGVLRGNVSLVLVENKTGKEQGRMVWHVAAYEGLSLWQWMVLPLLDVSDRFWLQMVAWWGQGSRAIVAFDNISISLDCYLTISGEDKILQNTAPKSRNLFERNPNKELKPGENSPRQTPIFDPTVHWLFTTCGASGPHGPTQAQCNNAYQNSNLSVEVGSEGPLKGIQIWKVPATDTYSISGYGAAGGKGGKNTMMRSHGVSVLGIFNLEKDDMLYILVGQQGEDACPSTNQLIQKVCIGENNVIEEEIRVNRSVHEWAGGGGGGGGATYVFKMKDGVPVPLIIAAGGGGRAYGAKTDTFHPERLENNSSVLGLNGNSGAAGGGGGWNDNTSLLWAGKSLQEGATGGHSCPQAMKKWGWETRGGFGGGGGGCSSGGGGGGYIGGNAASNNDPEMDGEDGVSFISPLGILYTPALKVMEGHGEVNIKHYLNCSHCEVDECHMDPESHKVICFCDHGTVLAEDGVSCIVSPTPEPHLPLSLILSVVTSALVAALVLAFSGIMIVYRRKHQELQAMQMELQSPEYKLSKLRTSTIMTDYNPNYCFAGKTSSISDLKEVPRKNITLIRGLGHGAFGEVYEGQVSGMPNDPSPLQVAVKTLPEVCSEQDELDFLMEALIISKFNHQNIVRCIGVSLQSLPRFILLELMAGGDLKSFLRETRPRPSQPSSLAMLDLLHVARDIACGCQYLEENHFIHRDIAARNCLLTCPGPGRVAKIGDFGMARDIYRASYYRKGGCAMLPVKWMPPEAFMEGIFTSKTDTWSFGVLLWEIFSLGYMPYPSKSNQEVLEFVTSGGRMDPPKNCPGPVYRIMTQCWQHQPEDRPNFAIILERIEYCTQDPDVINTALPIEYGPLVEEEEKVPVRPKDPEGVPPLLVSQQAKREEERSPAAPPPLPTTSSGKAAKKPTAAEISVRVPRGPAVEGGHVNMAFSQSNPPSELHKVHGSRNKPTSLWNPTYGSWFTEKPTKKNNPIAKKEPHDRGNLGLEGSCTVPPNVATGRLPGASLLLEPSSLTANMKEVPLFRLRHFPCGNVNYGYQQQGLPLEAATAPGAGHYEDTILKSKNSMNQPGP

COc1cc(N2CCC3(CCN(C)CC3)CC2)ccc1Nc1ncc(Cl)c(Nc2ccccc2P(C)(C)=O)n1 [Iruplinalkib]
IC50 (ALK^WT): 5.38 nM and < 10 nM | IC50 (CDK2): 1560 ± 1130 nM | IC50 (CK1 alpha): > 10000 nM | IC50 (DYRK3): 8010 ± 583 nM | IC50 (EPHA2): > 10000 nM | IC50 (GSK3 beta): > 10000 nM | IC50 (JAK2): 595 ± 12 nM | IC50 (MAPKAPK2): > 10000 nM | IC50 (MINK): 3890 ± 1060 nM | IC50 (MST4): 1400 ± 251 nM | IC50 (P38 alpha): > 10000 nM | IC50 (SRC): 1680 ± 872 nM | IC50 (TAOK2): 1500 ± 442 nM | IC50 [1]: 4.05 nM | IC50 [2]: 508 ± 96 nM | Tumor volume Mean [3, 4]: 149 mm³ | Tumor volume [3, 4]: 165 | Tumor volume Mean [3, 5]: 127 mm³ | Tumor volume [3, 5]: 165 | Tumor volume Mean [3, 6]: 82 mm³ | Tumor volume [3, 6]: 96 | Tumor volume Mean [3, 7]: 79 mm³ | Tumor volume [3, 7]: 80 | Tumor volume Mean [3, 8]: 70 mm³ | Tumor volume [3, 8]: 75 | Tumor volume Mean [3, 9]: 81 mm³ | Tumor volume [3, 9]: 96 | Tumor volume Mean [3, 10]: 89 mm³ | Tumor volume [3, 10]: 121 | Tumor volume Mean [3, 11]: 85 mm³ | Tumor volume [3, 11]: 118 | Tumor volume Mean [3, 12]: 94 mm³ | Tumor volume [3, 12]: 104 | Tumor volume Mean [3, 13]: 150 mm³ | Tumor volume [3, 13]: 136 and 117 | Tumor volume Mean [3, 14]: 124 mm³ | Tumor volume [3, 14]: 115 and 76 | Tumor volume Mean [3, 15]: 77 mm³ | Tumor volume [3, 15]: 71 and 51 | Tumor volume Mean [3, 16]: 60 mm³ | Tumor volume [3, 16]: 49 and 43 | Tumor volume Mean [3, 17]: 63 mm³ | Tumor volume [3, 17]: 48 | Tumor volume Mean [3, 18]: 77 mm³ | Tumor volume [3, 18]: 58 | Tumor volume Mean [3, 19]: 107 mm³ | Tumor volume [3, 19]: 56 | Tumor volume Mean [3, 20]: 106 mm³ | Tumor volume [3, 20]: 57 | Tumor volume Mean [3, 21]: 127 mm³ | Tumor volume [3, 21]: 65 and 99 | Tumor volume Mean [3, 22]: 149 mm³ | Tumor volume [3, 22]: 101 and 162 and 129 and 99 and 217 and 147 and 109 and 207 and 174 | Tumor volume Mean [3, 23]: 115 mm³ | Tumor volume [3, 23]: 81 and 117 and 84 and 63 and 150 and 118 and 79 and 154 and 190 | Tumor volume Mean [3, 24]: 66 mm³ | Tumor volume [3, 24]: 51 and 61 and 57 and 56 and 78 and 72 and 52 and 71 and 98 | Tumor volume Mean [3, 25]: 54 mm³ | Tumor volume [3, 25]: 48 and 61 and 44 and 35 and 63 and 79 and 45 | Tumor volume Mean [3, 26]: 49 mm³ | Tumor volume [3, 26]: 41 and 57 and 43 and 31 and 72 and 46 and 44 and 60 | Tumor volume Mean [3, 27]: 51 mm³ | Tumor volume [3, 27]: 44 and 92 and 41 and 24 and 68 and 47 and 32 and 42 | Tumor volume Mean [3, 28]: 49 mm³ | Tumor volume [3, 28]: 35 and 87 and 45 and 30 and 53 and 59 and 37 and 41 and 57 | Tumor volume Mean [3, 29]: 43 mm³ | Tumor volume [3, 29]: 29 and 56 and 37 and 23 and 45 and 53 and 34 and 22 and 91 | Tumor volume Mean [3, 30]: 49 mm³ | Tumor volume [3, 30]: 30 and 67 and 38 and 27 and 62 and 54 and 44 and 42 and 78 | tumor growth inhibition ([3]; LU-01-0015 and NCI-H3122 xenograft models, all P < 0.05): able to inhibit tumor growth | tumor inhibition effect compared with brigatinib ([3]; crizotinib-resistant model): significantly better than that of brigatinib | effect on body weight ([3]; nude mouse xenograft models (LU-01-0015, NCI-H3122), all P ≥ 0.05): no effect
